Patent publication US10662194B2, “Substituted 6-anilino-9-heterocyclylpurine derivatives for inhibition of plant stress” (UNIVERZITA PALACKEHO V OLOMOUCI, priority 2014, dated 2020)
pIC50: −log10 of the molar value. Like-named read-outs stand apart in the source and are kept apart here.

What was measured:
[1] = test system: wild-type Arabidopsis plants; assay: In vitro root growth of wild-type Arabidopsis plants; format: in vivo; details: 0.1 μM in MS medium, FIG. 6
Method: As shown in previous example presence of compound 12 in the growth medium has positive effect on the root growth of cytokinin-deficient Arabidopsis plants. This effect was further studied using wild-type Arabidopsis plants and compared with biologically and structurally relevant compounds, a cytokinin BAP and a CKX inhibitor INCYDE. […] Arabidopsis seedlings were grown in vitro on a standard MS medium containing 0.1 μM cytokinin BAP, the same concentration of compound 12 and the same concentration of CKX inhibitor INCYDE (2-chloro-6-(3-methoxyanilino)purine).

[2] = test system: CKX1 overproducing (35S:CKX1) Arabidopsis seedlings; assay: In vitro shoot and root growth of cytokinin deficient Arabidopsis plants; format: in vivo; details: for complementation of wild type shoot phenotype: 0.1 μM in MS medium, FIG. 3, 4
From the text: Constitutive overexpression of CKX in 35S:CKX1 plants leads to enhanced root growth. If CKX inhibitor can restore WT phenotype, it is expected that inhibition of the CKX activity in 35S:AtCKX1 plants should thus have no effect or inhibit their root growth. Such observation was done in case of INCYDE, but not compound 12.

recombinant AtCKX2 = molecular target: T1, recombinant AtCKX2 (Arabidopsis thaliana, UniProt Q9FUJ3); assay: Inhibition of cytokinin oxidase/dehydrogenase activity (PMS/MTT microtitre assay); format: biochemical
T1 construct: made in house; host or cells: S. cerevisiae strain 23344c ura-
T1 sequence (Q9FUJ3 23-501): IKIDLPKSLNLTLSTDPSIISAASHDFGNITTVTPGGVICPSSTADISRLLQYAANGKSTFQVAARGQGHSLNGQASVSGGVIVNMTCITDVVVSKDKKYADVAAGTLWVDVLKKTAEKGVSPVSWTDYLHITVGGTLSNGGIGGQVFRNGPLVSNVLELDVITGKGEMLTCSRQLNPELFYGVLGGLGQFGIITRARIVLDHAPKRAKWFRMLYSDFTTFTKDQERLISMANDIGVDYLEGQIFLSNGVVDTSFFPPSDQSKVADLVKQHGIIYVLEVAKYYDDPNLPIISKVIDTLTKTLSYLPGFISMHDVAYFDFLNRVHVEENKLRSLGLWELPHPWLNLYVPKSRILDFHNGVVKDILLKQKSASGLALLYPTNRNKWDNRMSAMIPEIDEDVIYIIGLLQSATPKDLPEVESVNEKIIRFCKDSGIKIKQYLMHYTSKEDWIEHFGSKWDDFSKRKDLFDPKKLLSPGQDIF
Method: IC50 measurements were done using the assay in microtitre plate. Each well contained 100 μL of PMS/MTT [phenazine methosulfate/3-(4,5-dimethylthiazol-2-yl)-2,5-diphenyltetrazolium bromide] reaction mixture (final concentrations: 0.1 M KH2PO4, pH 7.4, 1 mM MTT, 0.2 mM PMS) containing the tested compound (3×10^−7 M-3×10^−4 M) and 30 μM N^6-isopentenyladenine (iP) as a substrate. 100 μL of cell-free growth medium of S. cerevisiae strain 23344c ura^− harboring the plasmid pYES2-AtCKX2 was directly used as a source of AtCKX2. Plates were incubated in the dark for 30 min at 37° C. and the enzymatic reaction was stopped by 25 μL of 35% acetic acid. The absorbance at 578 nm was measured using spectrophotometer Tecan. Absorbance of the sample without iP was subtracted.
The IC50 value, the compound concentration that inhibits the enzyme activity to 50%, was calculated from the obtained dose response curves. The values shown in Table 7 are means of three replicates and the entire test was repeated at least twice. […] Compound 12 is an effective inhibitor of AtCKX2 activity, app. 3-times stronger that thidiazuron and only app. 3-times weaker than the structurally related compound INCYDE (2-chloro-6-(3-methoxyanilino)purine).

CRE1/AHK4 = molecular target: T2, CRE1/AHK4 (Arabidopsis thaliana, UniProt Q9C5U0); assay: Escherichia coli cytokinin receptor activation assay (CRE1/AHK4); format: cell-based; details: 10^−7 M-5×10^−5 M, compared to trans-zeatin, FIG. 1
T2 construct: expressed in transfected cells; host or cells: Escherichia coli strain KMI001
T2 sequence (Q9C5U0 whole entry): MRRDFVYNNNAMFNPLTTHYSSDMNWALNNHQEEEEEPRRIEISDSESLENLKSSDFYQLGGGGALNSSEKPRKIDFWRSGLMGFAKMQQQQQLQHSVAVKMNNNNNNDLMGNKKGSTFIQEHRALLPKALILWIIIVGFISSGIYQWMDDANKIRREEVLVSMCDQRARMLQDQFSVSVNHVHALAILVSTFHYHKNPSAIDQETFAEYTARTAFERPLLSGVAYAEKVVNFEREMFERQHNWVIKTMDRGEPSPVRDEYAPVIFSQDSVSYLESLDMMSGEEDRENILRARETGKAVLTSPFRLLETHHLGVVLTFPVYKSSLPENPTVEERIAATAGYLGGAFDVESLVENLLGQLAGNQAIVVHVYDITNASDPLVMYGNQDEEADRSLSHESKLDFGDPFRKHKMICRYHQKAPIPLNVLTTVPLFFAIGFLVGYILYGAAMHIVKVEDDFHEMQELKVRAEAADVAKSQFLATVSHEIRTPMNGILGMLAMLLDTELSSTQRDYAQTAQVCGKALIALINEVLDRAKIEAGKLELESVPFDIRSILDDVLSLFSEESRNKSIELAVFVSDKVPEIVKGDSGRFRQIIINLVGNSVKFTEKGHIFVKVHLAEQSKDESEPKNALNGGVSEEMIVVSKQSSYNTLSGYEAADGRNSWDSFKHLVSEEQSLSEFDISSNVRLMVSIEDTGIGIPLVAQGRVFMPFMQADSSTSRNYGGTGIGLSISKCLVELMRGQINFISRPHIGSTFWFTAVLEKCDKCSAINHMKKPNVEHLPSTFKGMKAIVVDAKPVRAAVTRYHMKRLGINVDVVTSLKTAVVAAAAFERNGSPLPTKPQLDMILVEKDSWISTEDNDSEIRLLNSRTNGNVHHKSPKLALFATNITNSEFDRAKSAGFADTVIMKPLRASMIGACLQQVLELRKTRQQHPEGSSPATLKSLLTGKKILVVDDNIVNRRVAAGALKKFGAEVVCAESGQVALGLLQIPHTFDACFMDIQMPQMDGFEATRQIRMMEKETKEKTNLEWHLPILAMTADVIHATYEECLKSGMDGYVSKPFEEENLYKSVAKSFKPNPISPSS
Method: (§1) Escherichia coli strains KMI001 harbouring the plasmid pIN-III-AHK4 or pSTV28-AHK3 were grown overnight at 25° C. in M9 media enriched with 0.1% casamino acids to OD600˜1. The preculture was diluted 1:600 in 1 ml M9 medium containing 0.1% casamino acids and 1 μL stock solution of either the tested compound (10^−7 M-5×10^−5 M) or solvent control (DMSO, ethanol, methanol) were added. The cultures were further grown at 25° C. in microtiter plate, 200 μL per well. […] The cultures were centrifuged and 50 μL aliquots of the supernatant were transferred to microtiter plate containing 2 μL 50 mM 4-methyl umbelliferyl galactoside which was subsequently incubated for 1 h at 37° C. The reaction was stopped by adding 100 μL 0.2 M Na2CO3. Fluorescence was measured using a Fluoroscan Ascent (Labsystems, Finland) at the excitation and emission wavelengths of 365 and 460 nm, respectively. The OD600 of remaining culture was determined and β-galactosidase activity was calculated as nmol 4-methylumbelliferone×OD600^−1×h^−1.

ARR5:GUS reporter gene = assay: Induction of cytokinin reporter ARR5:GUS in transgenic Arabidopsis plants; format: in vivo; details: 0.01-10 μM, 17 h, FIG. 2
Method: Cytokinins induce in Arabidopsis transcription of gene ARR5, a member of A-type response regulator family classified as cytokinin primary response genes being expressed down-stream of sensing by cytokinin receptors. We cultivated transgenic Arabidopsis plants harbouring PARR5::GUS reporter (D'Agostino et al. Plant Physiol. 124: 1706-1717, 2000) in MS medium containing cytokinin BAP, CKX inhibitor INCYDE and novel compounds 12 and 91 in concentrations 0.01, 0.1, 1, 5, 10 μM; DMSO (0.1%) was tested as solvent control. Seeds were surface-sterilized in 70% ethanol and then placed into wells of 6-well microtiter plate (TPP, Switzerland) containing 3 mL of MS medium in each well. After sowing plates were pretreated in dark at 4° C. to synchronize the germination of the seeds. […] Quantitative estimation of the level of ARR5:GUS gene induction was done according to method published by Romanov et al. (Romanov et al. FEBS Letters 515: 39-43, 2002). After extraction of proteins the GUS activity was determined using incubation with fluorogenic substrate MUG (4-methylumbelliferyl glucuronid; 1 h, 37° C.) and then fluorescence 365 nm and 460 nm (excitation and emission wavelengths) was recorded, as described in detail by Spíchal et al. (Spíchal et al. Plant and Cell Physiology 45: 1299-1305, 2004).

AHK3 = molecular target: T3, AHK3 (Arabidopsis thaliana, UniProt Q9C5U1); assay: Escherichia coli cytokinin receptor activation assay (AHK3); format: cell-based; details: 10^−7 M-5×10^−5 M, compared to trans-zeatin, FIG. 1
T3 construct: expressed in transfected cells; host or cells: Escherichia coli strain KMI001
T3 sequence (Q9C5U1 1-1036): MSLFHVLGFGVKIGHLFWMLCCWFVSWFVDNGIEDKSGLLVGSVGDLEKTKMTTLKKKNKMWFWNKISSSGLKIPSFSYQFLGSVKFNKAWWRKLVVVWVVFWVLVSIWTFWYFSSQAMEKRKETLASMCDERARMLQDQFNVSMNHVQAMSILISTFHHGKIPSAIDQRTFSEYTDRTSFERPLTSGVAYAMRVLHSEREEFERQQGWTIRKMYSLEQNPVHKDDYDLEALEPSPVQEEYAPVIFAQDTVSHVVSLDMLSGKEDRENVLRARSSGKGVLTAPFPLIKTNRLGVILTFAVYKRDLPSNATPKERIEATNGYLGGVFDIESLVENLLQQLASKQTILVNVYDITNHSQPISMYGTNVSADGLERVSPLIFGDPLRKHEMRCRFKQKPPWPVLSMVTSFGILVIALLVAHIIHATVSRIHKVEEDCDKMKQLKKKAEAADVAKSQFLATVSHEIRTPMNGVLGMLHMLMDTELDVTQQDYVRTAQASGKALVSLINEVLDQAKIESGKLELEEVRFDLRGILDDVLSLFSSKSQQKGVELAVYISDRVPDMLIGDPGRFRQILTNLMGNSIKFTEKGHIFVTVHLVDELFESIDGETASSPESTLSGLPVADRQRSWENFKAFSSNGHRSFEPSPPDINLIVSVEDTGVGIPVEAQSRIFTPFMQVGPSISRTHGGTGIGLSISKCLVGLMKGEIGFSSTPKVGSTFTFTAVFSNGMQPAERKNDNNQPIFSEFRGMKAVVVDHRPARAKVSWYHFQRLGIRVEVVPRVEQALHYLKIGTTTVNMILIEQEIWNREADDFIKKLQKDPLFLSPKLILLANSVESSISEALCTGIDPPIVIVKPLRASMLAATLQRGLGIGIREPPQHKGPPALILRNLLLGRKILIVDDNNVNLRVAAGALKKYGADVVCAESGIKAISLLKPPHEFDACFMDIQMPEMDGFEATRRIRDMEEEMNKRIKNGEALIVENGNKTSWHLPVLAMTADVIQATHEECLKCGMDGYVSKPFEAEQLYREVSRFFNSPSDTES
Method: as §1

[3] = 30 μM iP substrate, 30 min, 37° C., read-out: IC50

Row | pIC50 (recombinant AtCKX2; [3]) | SMILES | root growth [1] | complementation of wild type shoot phenotype [2] | other results
1 | – | c1ccc(CNc2ncnc3nc[nH]c23)cc1 [BAP, 6-benzylaminopurine] | inhibited root growth | cannot be reached | –
2 | 5.17 | COc1cccc(Nc2nc(Cl)nc3nc[nH]c23)c1 [INCYDE, 2-chloro-6-(3-methoxyanilino)purine] | inhibited root growth | led to restauration of wild type shoot phenotype | root biomass of 35S:CKX1 plants ([2]; tested concentration range, FIG. 5): did not influence the root biomass
3 | 5.28 | COc1cccc(Nc2nc(F)nc3[nH]cnc23)c1 [INCYDE-F, 2-fluoro-6-(3-methoxyanilino)purine, reference compound] | – | – | –
4 | – | O=C(Nc1ccccc1)Nc1cnns1 [thidiazuron, reference compound] | – | – | pIC50 (recombinant AtCKX2): 4.26

Row | SMILES | pIC50 (recombinant AtCKX2; [3]) | root growth [1] | complementation of wild type shoot phenotype [2] | other results
5 | COc1cccc(Nc2nc(F)nc3c2ncn3C2CCCCO2)c1 (stereo not drawn) [compound 91, 2-fluoro-6-(3-methoxyanilino)-9-(tetrahydropyran-2-yl)purine] | 3.42 | – | – | ability to activate cytokinin receptor CRE1/AHK4 (CRE1/AHK4): do not activate any of the receptors; induction of ARR5:GUS expression (ARR5:GUS reporter gene): dose-dependent induction of ARR5:GUS expression; ability to activate cytokinin receptor AHK3 (AHK3): do not activate any of the receptors
